PMC4567403 (Bioorganic & medicinal chemistry letters, 2015)

What was measured:
[1] = tested on: e-cadherin expression in SW620 cells; assay: In-Cell-Western; format: cell-based; settings: 10 μM compound, average of two assessments
SW620 cell lines = settings: cited from earlier work
P450 2C9 = P450 2C9 (Homo sapiens, UniProt P11712); assay: P450 inhibition 2C9; format: in vitro ADME; settings: 2C9, at 30 μM
P450 2D6 = P450 2D6 (Homo sapiens, UniProt P10635); assay: P450 inhibition 2D6; format: in vitro ADME; settings: 2D6, at 30 μM
[2] = Microsomal intrinsic clearance, mouse; format: in vitro ADME; settings: in words
P450 1A2 = biological target: T1, P450 1A2 (Homo sapiens, UniProt P05177); assay: P450 inhibition 1A2; format: in vitro ADME; settings: 1A2, at 30 μM
T1 sequence (P05177 1-516): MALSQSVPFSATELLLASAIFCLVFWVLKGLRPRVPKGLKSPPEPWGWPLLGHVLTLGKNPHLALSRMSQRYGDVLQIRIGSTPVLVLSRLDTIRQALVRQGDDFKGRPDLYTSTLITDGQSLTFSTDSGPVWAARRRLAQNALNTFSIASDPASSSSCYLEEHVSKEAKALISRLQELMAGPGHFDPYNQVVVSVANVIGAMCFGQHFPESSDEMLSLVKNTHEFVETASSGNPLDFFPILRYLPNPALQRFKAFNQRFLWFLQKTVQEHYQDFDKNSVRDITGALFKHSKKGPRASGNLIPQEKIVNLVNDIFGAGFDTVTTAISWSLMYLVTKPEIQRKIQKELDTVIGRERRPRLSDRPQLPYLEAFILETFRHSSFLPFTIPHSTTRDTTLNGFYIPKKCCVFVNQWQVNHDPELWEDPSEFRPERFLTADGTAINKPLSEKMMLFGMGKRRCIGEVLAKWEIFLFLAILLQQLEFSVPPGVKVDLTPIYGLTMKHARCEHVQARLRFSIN

[3] = Microsomal intrinsic clearance, human; format: in vitro ADME; settings: human microsomal studies, in words
Pharmacokinetics in rat = format: in vivo, male Sprauge- Dawley rats
P450 3A4 = P450 3A4 (Homo sapiens, UniProt P08684); assay: P450 inhibition 3A4; format: in vitro ADME; settings: 3A4, at 30 μM
P450 3A4, sequence (P08684 whole entry): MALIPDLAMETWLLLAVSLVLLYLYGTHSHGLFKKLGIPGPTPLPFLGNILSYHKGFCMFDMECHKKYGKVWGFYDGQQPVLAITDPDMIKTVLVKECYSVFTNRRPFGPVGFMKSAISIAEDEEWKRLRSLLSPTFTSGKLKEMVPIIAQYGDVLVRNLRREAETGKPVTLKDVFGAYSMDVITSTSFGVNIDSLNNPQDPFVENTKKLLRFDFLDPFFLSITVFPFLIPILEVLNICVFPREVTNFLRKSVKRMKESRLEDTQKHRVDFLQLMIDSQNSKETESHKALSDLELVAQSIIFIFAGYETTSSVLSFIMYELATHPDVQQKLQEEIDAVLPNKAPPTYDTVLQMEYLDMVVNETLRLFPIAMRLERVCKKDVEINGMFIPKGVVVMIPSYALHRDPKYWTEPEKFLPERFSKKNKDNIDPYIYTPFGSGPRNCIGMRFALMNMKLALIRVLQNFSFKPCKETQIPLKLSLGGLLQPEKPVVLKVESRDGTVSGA

P450 2D6, sequence (P10635 whole entry): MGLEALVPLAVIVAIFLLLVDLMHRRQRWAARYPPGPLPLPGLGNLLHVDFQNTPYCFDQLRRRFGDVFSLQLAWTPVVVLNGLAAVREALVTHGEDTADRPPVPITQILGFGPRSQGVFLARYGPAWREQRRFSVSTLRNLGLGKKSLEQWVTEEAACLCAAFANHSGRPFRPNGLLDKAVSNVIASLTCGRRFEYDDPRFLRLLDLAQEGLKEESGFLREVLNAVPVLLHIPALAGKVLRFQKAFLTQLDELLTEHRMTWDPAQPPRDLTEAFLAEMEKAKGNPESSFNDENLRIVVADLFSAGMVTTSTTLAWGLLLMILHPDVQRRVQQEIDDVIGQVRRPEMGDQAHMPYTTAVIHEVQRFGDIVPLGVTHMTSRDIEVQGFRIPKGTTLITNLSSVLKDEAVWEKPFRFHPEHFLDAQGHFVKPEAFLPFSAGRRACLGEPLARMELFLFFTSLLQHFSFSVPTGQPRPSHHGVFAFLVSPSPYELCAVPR
P450 2C9, sequence (P11712 whole entry): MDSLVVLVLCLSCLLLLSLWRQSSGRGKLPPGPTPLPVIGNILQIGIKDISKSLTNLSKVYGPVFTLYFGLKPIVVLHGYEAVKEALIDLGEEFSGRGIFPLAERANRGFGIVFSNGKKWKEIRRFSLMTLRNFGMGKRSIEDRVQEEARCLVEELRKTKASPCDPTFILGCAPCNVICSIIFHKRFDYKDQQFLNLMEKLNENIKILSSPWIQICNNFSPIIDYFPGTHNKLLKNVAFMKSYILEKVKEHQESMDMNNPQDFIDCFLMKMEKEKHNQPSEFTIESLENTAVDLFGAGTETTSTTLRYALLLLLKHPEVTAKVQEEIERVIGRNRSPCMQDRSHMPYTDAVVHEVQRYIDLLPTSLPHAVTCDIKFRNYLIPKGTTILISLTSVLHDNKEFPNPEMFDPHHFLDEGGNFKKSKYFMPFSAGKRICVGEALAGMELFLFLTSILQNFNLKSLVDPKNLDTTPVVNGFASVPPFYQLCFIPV

CC(CNC(=O)c1cc(-c2cccs2)on1)c1ccncc1 (stereo not drawn) [compound 7]
Fold change of e-cadherin expression [1]: failed to demonstrate significant restoration

Cc1c(C(=O)NCCCCc2ccncc2)nn(C)c1-c1ccccc1 [compound 6]
Fold change of e-cadherin expression [1]: failed to demonstrate significant restoration

O=C(NCCCCNC(=O)c1cccnc1O)c1cc(-c2ccccc2)on1 [11r]
EMT phenotype (SW620 cell lines): capable of reversing the EMT phenotype | invasive potential (SW620 cell lines): reducing the invasive potential | inhibition of P450 isozyme (P450 2C9): No inhibition | inhibition of P450 isozyme (P450 2D6): No inhibition | mouse clearance [2]: well in excess of hepatic blood flow | inhibition of P450 isozyme (P450 1A2): No inhibition | intrinsic clearance [3]: neglible | exposure (Pharmacokinetics in rat; IV and IP dosing): suitable | half life (Pharmacokinetics in rat; IV dose in rat, 1 mg/kg): long | inhibition of P450 isozyme (P450 3A4): No inhibition

O=C(NCCCn1ccnc1)c1noc2ccccc12 [compound 3]
Fold change of e-cadherin expression [1]: failed to demonstrate significant restoration

Cn1nc(C(=O)NCCCCc2ccncc2)cc1-c1ccccc1 [compound 5]
Fold change of e-cadherin expression [1]: failed to demonstrate significant restoration

O=C(NCCCN1CCOCC1)c1n[nH]c2ccccc12 [compound 4]
Fold change of e-cadherin expression [1]: failed to demonstrate significant restoration
